According to PubChem BioAssay (NCI):
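48-hour exposure; five concentrations; linearly interpolated endpoints. TGI denotes the concentration required for complete inhibition of growth.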

Assays:
Assay in all cases: NCI anticancer screen, dose series, 48 h
MDA-MB-435 = tested on: MDA-MB-435
NCI-H522 lung = tested on: NCI-H522 lung
UACC-62 melanoma = tested on: UACC-62 melanoma
A549 NSCLC = tested on: A549 NSCLC
EKVX NSCLC = tested on: EKVX NSCLC
SK-OV-3 ovarian = tested on: SK-OV-3 ovarian
SNB-75 CNS = tested on: SNB-75 CNS
T-47D breast = tested on: T-47D breast
SNB-19 CNS = tested on: SNB-19 CNS
TK-10 renal = tested on: TK-10 renal
OVCAR-3 ovarian = tested on: OVCAR-3 ovarian
SF-539 CNS = tested on: SF-539 CNS
CCRF-CEM leukemia = tested on: CCRF-CEM leukemia
U251 CNS = tested on: U251 CNS
UO-31 renal = tested on: UO-31 renal
KM12 colon = tested on: KM12 colon
OVCAR-4 ovarian = tested on: OVCAR-4 ovarian
HCT-15 colon = tested on: HCT-15 colon
786-0 renal = tested on: 786-0 renal
HCT-116 colon = tested on: HCT-116 colon
HS 578T breast = tested on: HS 578T breast
COLO 205 colon = tested on: COLO 205 colon
MDA-MB-231 breast = tested on: MDA-MB-231 breast
SF-295 CNS = tested on: SF-295 CNS
LOX IMVI melanoma = tested on: LOX IMVI melanoma
PC-3 prostate = tested on: PC-3 prostate
HL-60(TB) leukemia = tested on: HL-60(TB) leukemia
NCI-H226 lung = tested on: NCI-H226 lung
ACHN renal = tested on: ACHN renal
SW-620 colon = tested on: SW-620 colon
HOP-62 NSCLC = tested on: HOP-62 NSCLC
SR leukemia = tested on: SR leukemia
HCC-2998 colon = tested on: HCC-2998 colon
SN12C renal = tested on: SN12C renal
HOP-92 NSCLC = tested on: HOP-92 NSCLC
UACC-257 melanoma = tested on: UACC-257 melanoma
NCI-H23 lung = tested on: NCI-H23 lung
NCI/ADR-RES ovarian = tested on: NCI/ADR-RES ovarian
MALME-3M melanoma = tested on: MALME-3M melanoma
CAKI-1 renal = tested on: CAKI-1 renal
M14 melanoma = tested on: M14 melanoma
BT-549 breast = tested on: BT-549 breast
MDA-N = tested on: MDA-N
SK-MEL-28 melanoma = tested on: SK-MEL-28 melanoma
MCF7 breast = tested on: MCF7 breast
RXF 393 renal = tested on: RXF 393 renal
MOLT-4 leukemia = tested on: MOLT-4 leukemia
SF-268 CNS = tested on: SF-268 CNS
OVCAR-5 ovarian = tested on: OVCAR-5 ovarian
RPMI-8226 leukemia = tested on: RPMI-8226 leukemia
HT29 colon = tested on: HT29 colon
DU-145 prostate = tested on: DU-145 prostate
OVCAR-8 ovarian = tested on: OVCAR-8 ovarian
IGROV1 ovarian = tested on: IGROV1 ovarian
SK-MEL-2 melanoma = tested on: SK-MEL-2 melanoma
NCI-H460 lung = tested on: NCI-H460 lung
K-562 leukemia = tested on: K-562 leukemia
A498 renal = tested on: A498 renal
SK-MEL-5 melanoma = tested on: SK-MEL-5 melanoma

How did the TGI (MDA-MB-435) turn out when `COc1ccc(/C=C2\N=C(N3CCOCC3)NC2=O)cc1` was run?
The TGI was over 100 µM.

And the TGI (NCI-H522 lung)?
The TGI was over 100 µM.

What about the TGI (UACC-62 melanoma) of the same molecule?
The TGI was over 100 µM.

What about the TGI (A549 NSCLC) of the same molecule?
The TGI was over 100 µM.

What about the TGI (EKVX NSCLC) of the same molecule?
The TGI was over 100 µM.

What about the TGI (SK-OV-3 ovarian) of the same molecule?
The TGI was over 100 µM.

And the TGI (SNB-75 CNS)?
The TGI was over 100 µM.

And the TGI (T-47D breast)?
Its TGI is over 100 µM.

What about the TGI (SNB-19 CNS) of the same molecule?
The TGI was over 100 µM.

What about the TGI (TK-10 renal) of the same molecule?
Its TGI is over 100 µM.

And the TGI (OVCAR-3 ovarian)?
The TGI was over 100 µM.

What about the TGI (SF-539 CNS) of the same molecule?
The TGI was over 100 µM.

And the TGI (CCRF-CEM leukemia)?
Its TGI is over 100 µM.

And the TGI (U251 CNS)?
The TGI was over 100 µM.

And the TGI (UO-31 renal)?
Its TGI is over 100 µM.

What about the TGI (KM12 colon) of the same molecule?
The TGI was over 100 µM.

And the TGI (OVCAR-4 ovarian)?
Its TGI is over 100 µM.

And the TGI (HCT-15 colon)?
Its TGI is over 100 µM.

And the TGI (786-0 renal)?
Its TGI is over 100 µM.

And the TGI (HCT-116 colon)?
Its TGI is over 100 µM.

What about the TGI (HS 578T breast) of the same molecule?
The TGI was over 100 µM.

And the TGI (COLO 205 colon)?
The TGI was over 100 µM.

What about the TGI (MDA-MB-231 breast) of the same molecule?
Its TGI is over 100 µM.

What about the TGI (SF-295 CNS) of the same molecule?
The TGI was over 100 µM.

And the TGI (LOX IMVI melanoma)?
The TGI was over 100 µM.

What about the TGI (PC-3 prostate) of the same molecule?
Its TGI is over 100 µM.

And the TGI (HL-60(TB) leukemia)?
Its TGI is over 100 µM.

And the TGI (NCI-H226 lung)?
Its TGI is over 100 µM.

And the TGI (ACHN renal)?
The TGI was over 100 µM.

What about the TGI (SW-620 colon) of the same molecule?
The TGI was over 100 µM.

And the TGI (HOP-62 NSCLC)?
The TGI was over 100 µM.

What about the TGI (SR leukemia) of the same molecule?
Its TGI is over 100 µM.

And the TGI (HCC-2998 colon)?
Its TGI is over 100 µM.

What about the TGI (SN12C renal) of the same molecule?
Its TGI is over 100 µM.

And the TGI (HOP-92 NSCLC)?
The TGI was over 100 µM.

What about the TGI (UACC-257 melanoma) of the same molecule?
The TGI was over 100 µM.

And the TGI (NCI-H23 lung)?
Its TGI is over 100 µM.

What about the TGI (NCI/ADR-RES ovarian) of the same molecule?
Its TGI is over 100 µM.

And the TGI (MALME-3M melanoma)?
Its TGI is over 100 µM.

What about the TGI (CAKI-1 renal) of the same molecule?
Its TGI is over 100 µM.

And the TGI (M14 melanoma)?
Its TGI is over 100 µM.

And the TGI (BT-549 breast)?
The TGI was over 100 µM.

And the TGI (MDA-N)?
The TGI was over 100 µM.

And the TGI (SK-MEL-28 melanoma)?
Its TGI is over 100 µM.

And the TGI (MCF7 breast)?
Its TGI is over 100 µM.

And the TGI (RXF 393 renal)?
Its TGI is over 100 µM.

And the TGI (MOLT-4 leukemia)?
Its TGI is over 100 µM.

And the TGI (SF-268 CNS)?
Its TGI is over 100 µM.

What about the TGI (OVCAR-5 ovarian) of the same molecule?
The TGI was over 100 µM.

And the TGI (RPMI-8226 leukemia)?
Its TGI is over 100 µM.

What about the TGI (HT29 colon) of the same molecule?
The TGI was over 100 µM.

What about the TGI (DU-145 prostate) of the same molecule?
Its TGI is over 100 µM.

And the TGI (OVCAR-8 ovarian)?
The TGI was over 100 µM.

And the TGI (IGROV1 ovarian)?
Its TGI is over 100 µM.

What about the TGI (SK-MEL-2 melanoma) of the same molecule?
The TGI was over 100 µM.

Which TGI (MDA-MB-435) does the source give for `COc1ccc(-c2nc(SCC(=O)N/N=C/c3ccc([N+](=O)[O-])cc3)[nH]c2-c2ccc(OC)cc2)cc1` here?
Its TGI is 12.2 µM.

What about the TGI (NCI-H522 lung) of the same molecule?
Its TGI is 29.7 µM.

And the TGI (UACC-62 melanoma)?
The TGI was 20.5 µM.

What about the TGI (A549 NSCLC) of the same molecule?
The TGI was over 100 µM.

And the TGI (EKVX NSCLC)?
Its TGI is 98.8 µM.

What about the TGI (SK-OV-3 ovarian) of the same molecule?
Its TGI is over 81.9 µM.

What about the TGI (SNB-75 CNS) of the same molecule?
Its TGI is over 63.3 µM.

And the TGI (T-47D breast)?
The TGI was over 100 µM.

And the TGI (SNB-19 CNS)?
The TGI was over 100 µM.

What about the TGI (TK-10 renal) of the same molecule?
The TGI was over 100 µM.

What about the TGI (OVCAR-3 ovarian) of the same molecule?
The TGI was over 64.5 µM.

And the TGI (SF-539 CNS)?
The TGI was 30.8 µM.

And the TGI (CCRF-CEM leukemia)?
Its TGI is over 22.1 µM.

What about the TGI (U251 CNS) of the same molecule?
Its TGI is 29.4 µM.

What about the TGI (UO-31 renal) of the same molecule?
The TGI was over 100 µM.

What about the TGI (KM12 colon) of the same molecule?
The TGI was 35.9 µM.

And the TGI (OVCAR-4 ovarian)?
The TGI was over 100 µM.

What about the TGI (NCI-H460 lung) of the same molecule?
Its TGI is 45.8 µM.

And the TGI (HCT-15 colon)?
The TGI was over 85.1 µM.

And the TGI (K-562 leukemia)?
The TGI was over 100 µM.

And the TGI (786-0 renal)?
The TGI was over 93.1 µM.

And the TGI (HCT-116 colon)?
Its TGI is 37.3 µM.

What about the TGI (HS 578T breast) of the same molecule?
The TGI was 76.3 µM.

What about the TGI (COLO 205 colon) of the same molecule?
Its TGI is 5.28 µM.

And the TGI (MDA-MB-231 breast)?
The TGI was over 100 µM.

What about the TGI (SF-295 CNS) of the same molecule?
Its TGI is over 69 µM.

And the TGI (LOX IMVI melanoma)?
The TGI was 44.1 µM.

And the TGI (PC-3 prostate)?
Its TGI is over 100 µM.

What about the TGI (HL-60(TB) leukemia) of the same molecule?
The TGI was 24.7 µM.

What about the TGI (ACHN renal) of the same molecule?
Its TGI is 99.4 µM.

And the TGI (SW-620 colon)?
The TGI was over 65.7 µM.

And the TGI (HOP-62 NSCLC)?
The TGI was over 100 µM.

And the TGI (A498 renal)?
The TGI was 55.4 µM.

And the TGI (HCC-2998 colon)?
Its TGI is 31.5 µM.

What about the TGI (SN12C renal) of the same molecule?
Its TGI is 46.6 µM.

And the TGI (HOP-92 NSCLC)?
The TGI was over 61.3 µM.

What about the TGI (UACC-257 melanoma) of the same molecule?
The TGI was 49.4 µM.

And the TGI (SK-MEL-5 melanoma)?
Its TGI is 19.9 µM.

And the TGI (NCI-H23 lung)?
The TGI was 85.6 µM.

And the TGI (NCI/ADR-RES ovarian)?
Its TGI is 79.7 µM.

What about the TGI (MALME-3M melanoma) of the same molecule?
The TGI was 50.8 µM.

And the TGI (CAKI-1 renal)?
The TGI was over 75.6 µM.

What about the TGI (M14 melanoma) of the same molecule?
The TGI was 32.3 µM.

And the TGI (BT-549 breast)?
Its TGI is 51.3 µM.

What about the TGI (MDA-N) of the same molecule?
The TGI was 12.9 µM.

And the TGI (SK-MEL-28 melanoma)?
The TGI was over 72 µM.

What about the TGI (MCF7 breast) of the same molecule?
Its TGI is 20.6 µM.

What about the TGI (RXF 393 renal) of the same molecule?
Its TGI is 56.6 µM.

And the TGI (MOLT-4 leukemia)?
Its TGI is 42.1 µM.

And the TGI (SF-268 CNS)?
Its TGI is over 100 µM.

What about the TGI (OVCAR-5 ovarian) of the same molecule?
The TGI was 60.7 µM.

What about the TGI (RPMI-8226 leukemia) of the same molecule?
Its TGI is 62 µM.

What about the TGI (HT29 colon) of the same molecule?
Its TGI is 26.9 µM.

And the TGI (DU-145 prostate)?
The TGI was over 100 µM.

And the TGI (OVCAR-8 ovarian)?
The TGI was over 100 µM.

What about the TGI (IGROV1 ovarian) of the same molecule?
Its TGI is 74.8 µM.

What about the TGI (SK-MEL-2 melanoma) of the same molecule?
Its TGI is 20.5 µM.
